# Entries after “also recorded” stand apart in the source; their conditions may differ.
# Legend:
# Assay type in all cases: cell-based, human
# [1] = tested on: KB tumor cells; thymidylate and de novo purine nucleotide biosynthesis; assay: Metabolite protection experiments in KB cells (thymidine, adenosine, glycine, AICA); details: for targeted pathway from metabolite protection (in words): thymidine 10 μM, adenosine 60 μM, glycine 130 μM, AICA 320 μM
# Protocol: To identify the targeted pathways/enzymes of these pyrrolo[2,3-d]pyrimidine compounds (1, 2, 4–8), in vitro growth inhibition assays were performed with KB tumor cells in glycine-, adenosine-, and thymidine-free media without additions or in the presence of thymidine (10 μM), adenosine (60 μM), or glycine (130 μM) (both singly and in various combinations; Figure 4).[18],[23]−[25],[28]−[31],[42],[44],[45] For de novo purine biosynthesis inhibitors, protection was also tested with AICA (320 μM), which is metabolized to AICA ribonucleotide (substrate for the AICARFTase reaction, thus circumventing GARFTase).
# Figure 4 Metabolite protection experiments. […] Cell densities were measured with a fluorescence assay[25] and a fluorescence plate reader. Results were normalized to cell densities in the absence of drug. Results shown are mean values plus/minus standard errors from triplicate experiments. Experimental details are described in the Supporting Information, and the methods have been previously published.[18],[23]−[25],[28]−[31],[42],[44]
# (§1) (Vancouver, B.C). IGROV1, KB and IOSE 7576 cells were cultured in complete FF-RPMI with 10% fetal bovine serum and 100 units/mL penicillin/100 μg/mL streptomycin, and 2 mM L-glutamine. Cell lines were tested for Mycoplasma by PCR using a Mycloplasma testing kit (Venor™ GeM Mycoplasma Detection Kit, Sigma). Frozen stocks were generated from authenticated Mycoplasma-free cultures.
# (§2) For cell proliferation assays, CHO, KB, NCI-IGROV1 and IOSE 7576 cells were plated in 96-well dishes at densities ranging from 2500-5000 cells/well in 200 μL media and treated with a range of inhibitors spanning 0-1000 nM. Experiments with RT16, D4, IGROV1, IOSE 7576 and KB cells used folate-free RPMI 1640 (FF RPMI) media with 10% dialyzed fetal bovine serum and 100 units/mL penicillin/100 μg/mL streptomycin, supplemented with 2 nM leucovorin and 2 mM L-glutamine. FR-mediated drug uptake was assessed in parallel incubations including 200 nM folic acid. For R2/PCFT4, PC43-10 and R2 CHO cells, the medium was FF-RPMI supplemented with 10% dialyzed fetal bovine serum, 100 units/mL penicillin/100 μg/mL streptomycin, 25 nM leucovorin and 2 mM L-glutamine.
# (§3) Cells were treated over a 96 h period at 37° C with 5% CO2 and relative cell numbers quantified using the CellTiter-blue cell viability assay (Promega, Madison, WI) and a fluorescence plate reader. Raw data were exported to Excel for analysis and the results were plotted using Graphpad Prism 6.0. Determinations of IC50s were made […]
# (§4) assays have been previously described.7, 8, 11, 12, 15-20 […]
# [2] = tested on: IGROV1 epithelial ovarian cancer cells; assay: Cell proliferation assay, IGROV1 tumor cells; details: for IC50: Homo sapiens, IGROV-1, 96 h, 0-1000 nM, mean (standard error), 3-5 experiments; for potency toward IGROV1 cells compared with IOSE 7576 cells (in words): IGROV1 vs IOSE 7576
# Excerpt: (§5) For the tumor cells, except the des-methyl compound 4 with IGROV1 cells, all compounds were inhibitory. […]
# (§6) Reagents for biological studies. Leucovorin [(6R,S) 5-formyl tetrahydrofolate] and methotrexate (MTX) was provided by the Drug Development Branch, National Cancer Institute, Bethesda, MD. Other chemicals were obtained from commercial sources in the highest available purities. Pemetrexed (PMX; 1) [N-{4-[2- (2-amino-3,4-dihydro-4-oxo-7H-pyrrolo[2,3-d]pyrimidin-5-yl)ethyl]benzoyl-L-glutamic acid] (Alimta) was purchased from LC Laboratories (Woburn, MA). The syntheses of compounds 2 and 3 were previously described.7, 8 Additional chemicals were purchased from commercial sources in the highest available purities. […]
# (§7) KB nasopharyngeal carcinoma cells were obtained from the American Type Culture Collection (Manassas, VA) and IGROV1 (NCI-IGROV1) (passage 5) ovarian adenocarcinoma cells13 were obtained from the Division of Cancer Treatment and Diagnosis, National Cancer Institute (Frederick, MD). Normal ovary cells immortalized with SV40 (IOSE 7576)14 were obtained from the Canadian OvCaRe Cell Bank […]
# as §1, §2, §3, §4
# (§8) 7, 8, 11, 12, 15-20 Inhibitory effects of the novel analogs on de novo thymidylate biosynthesis and de novo purine nucleotide biosynthesis were tested by incubating drugs with thymidine (10 μM) and adenosine (60 μM), respectively. Incubation with glycine (130 µM) was used to assess the potential involvement of mitochondrial C1 targeted agents.15 To identify multiple metabolic targets, metabolite additions were added in combination.7, 8, 11, 12, 15-19 Finally, to distinguish targeting between the folate-dependent purine biosynthetic enzymes glycinamide ribonucleotide formyltransferase (GARFTase) and 5-aminoimidazole-4-carboxamide (AICA) ribonucleotide formyltransferase (AICARFTase), co-incubation experiments were performed using AICA hydrochloride (320 μM). 7, 8, 11, 12, […]
# (§9) Statistics. The biological data reflect at least three experimental replicates. All statistical comparisons were performed using unpaired t-tests. Biological data are presented as mean values +/- standard errors using data without transformation.
# [3] = tested on: KB nasopharyngeal carcinoma cells; assay: Cell proliferation assay, KB tumor cells; details: for IC50: Homo sapiens, 96 h, 0-1000 nM, mean (standard error), 3-5 experiments
# Excerpt: as §5, §6, §7, §1, §2, §3, §4, §8, §9
Compound,IC50 [2] [nM],IC50 [3] [nM],targeted pathway from metabolite protection (in words) [1],potency toward IGROV1 cells compared with IOSE 7576 cells (in words) [2],protection by glycine / mitochondrial C1 metabolism (in words) ([1]; glycine 130 μM added to adenosine and thymidine),inhibition of IGROV1 cells (in words) [2],"greater potency than the corresponding 6-desmethyl analogue 3, IGROV1 cells ([2]; IGROV1 cells, relative to compound 3) [fold]","greater potency than the corresponding 6-desmethyl analogue 3, KB cells ([3]; KB cells, relative to compound 3) [fold]"
"Nc1nc2[nH]cc(CCc3ccc(C(=O)N[C@@H](CCC(=O)O)C(=O)O)cc3)c2c(=O)[nH]1 [Compound 1, reference compound]",71,9.95,inhibited both thymidylate and purine nucleotide biosynthesis,more active toward IGROV1 cells,–,–,–,–
Nc1nc2[nH]cc(CCCc3ccc(C(=O)N[C@@H](CCC(=O)O)C(=O)O)cc3)c2c(=O)[nH]1 [Compound 2],52.7,–,inhibited both thymidylate and purine nucleotide biosynthesis,more potent toward IOSE 7576 cells than IGROV1 cells,addition of glycine provided greater protection than did adenosine and thymidine alone; also recorded: inhibition of mitochondrial C1 metabolism was also suggested,–,–,–
Nc1nc2[nH]cc(CCc3ccc(C(=O)N[C@@H](CCC(=O)O)C(=O)O)s3)c2c(=O)[nH]1 [Compound 3],320,833,–,more potent toward IOSE 7576 cells than IGROV1 cells,–,–,–,–
Nc1nc2[nH]cc(CCc3ccc(C(=O)N[C@@H](CCC(=O)O)C(=O)O)c(F)c3)c2c(=O)[nH]1 [Compound 4],> 1000,77.3,inhibited both thymidylate and purine nucleotide biosynthesis,–,–,inactive,–,–

# Further lines, with some results ahead:
IC50 [2] [nM],IC50 [3] [nM],Compound,targeted pathway from metabolite protection (in words) [1],potency toward IGROV1 cells compared with IOSE 7576 cells (in words) [2],protection by glycine / mitochondrial C1 metabolism (in words) ([1]; glycine 130 μM added to adenosine and thymidine),inhibition of IGROV1 cells (in words) [2],"greater potency than the corresponding 6-desmethyl analogue 3, IGROV1 cells ([2]; IGROV1 cells, relative to compound 3) [fold]","greater potency than the corresponding 6-desmethyl analogue 3, KB cells ([3]; KB cells, relative to compound 3) [fold]"
9.31,28.5,Cc1[nH]c2nc(N)[nH]c(=O)c2c1CCc1ccc(C(=O)N[C@@H](CCC(=O)O)C(=O)O)cc1 [Compound 5],–,–,–,–,–,–
750,49.9,Cc1[nH]c2nc(N)[nH]c(=O)c2c1CCCc1ccc(C(=O)N[C@@H](CCC(=O)O)C(=O)O)cc1 [Compound 6],–,–,–,modestly inhibitory,–,–
2.52,3.43,Cc1[nH]c2nc(N)[nH]c(=O)c2c1CCc1ccc(C(=O)N[C@@H](CCC(=O)O)C(=O)O)s1 [Compound 7],–,–,–,–,127,242
134,347,Cc1[nH]c2nc(N)[nH]c(=O)c2c1CCc1ccc(C(=O)N[C@@H](CCC(=O)O)C(=O)O)c(F)c1 [Compound 8],–,–,–,–,–,–

# From publication PMC10726441, “Discovery of Tumor-Targeted 6-Methyl Substituted Pemetrexed and Related Antifolates with Selective Loss of RFC Transport” (ACS Medicinal Chemistry Letters, 2023)
